Reference: US20220119354A1, “DIAMINO-SUBSTITUTED PYRIDINES AND PYRIMIDINES AS HERBICIDES” (FMC Corporation, priority 2019, published 2022)

What was measured:
Type in all cases: in vivo
kochia (Kochia scoparia) [1] = assay: Test A preemergence, kochia; settings: 0 to 100 scale; for Kochia plant response rating: 0 is no effect, 100 is complete control
How it was run: (§1)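 Pots of loam–sand mix; preemergence directed soil spray at sowing, postemergence spray at one- to two-leaf stage. Readout: visual injury vs untreated controls, ~10 d, 0–100 scale.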

[2] = test system: barnyardgrass (Echinochloa crus-galli); assay: Test A postemergence, barnyardgrass; settings: 0 to 100 scale
How it was run: as §1

[3] = test system: foxtail, giant (Setaria faberii); assay: Test A preemergence, giant foxtail; settings: 0 to 100 scale; for Foxtail, Giant plant response rating: 0 is no effect, 100 is complete control
How it was run: as §1

[4] = test system: ragweed (common ragweed, Ambrosia elatior); assay: Test A preemergence, ragweed; settings: 0 to 100 scale; for Ragweed plant response rating: 0 is no effect, 100 is complete control
How it was run: as §1

[5] = test system: barnyardgrass (Echinochloa crus-galli); assay: Test B flooded paddy test, barnyardgrass; settings: Flood, 250 g ai/ha, applied to paddy water, 2-leaf stage, visual evaluation after 13 to 15 d
How it was run: (§2)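 Each response is a visual 0–100 rating made against untreated controls, where 0 is no effect and 100 is complete control; a dash marks no result. Compound was dosed into 3 cm paddy water over 2-leaf plants, assessed after 13 to 15 d.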

kochia (Kochia scoparia) [6] = assay: Test A postemergence, kochia; settings: 0 to 100 scale
How it was run: as §1

[7] = test system: wheat (Triticum aestivum); assay: Test A postemergence, wheat; settings: 0 to 100 scale
How it was run: as §1

[8] = test system: ryegrass, Italian (Lolium multiflorum); assay: Test A postemergence, Italian ryegrass; settings: 0 to 100 scale
How it was run: as §1

[9] = test system: galium (catchweed bedstraw, Galium aparine); assay: Test A postemergence, galium; settings: 0 to 100 scale
How it was run: as §1

corn (Zea mays) = assay: Test A postemergence, corn; settings: 0 to 100 scale
How it was run: as §1

[10] = test system: ragweed (common ragweed, Ambrosia elatior); assay: Test A postemergence, ragweed; settings: 0 to 100 scale
How it was run: as §1

[11] = test system: ducksalad (Heteranthera limosa); assay: Test B flooded paddy test, ducksalad; settings: Flood, 250 g ai/ha, applied to paddy water, 2-leaf stage, visual evaluation after 13 to 15 d
How it was run: as §2

[12] = test system: pigweed (Amaranthus retroflexus); assay: Test A postemergence, pigweed; settings: 0 to 100 scale
How it was run: as §1

[13] = test system: sedge, umbrella (small-flower umbrella sedge, Cyperus difformis); assay: Test B flooded paddy test, umbrella sedge; settings: Flood, 250 g ai/ha, applied to paddy water, 2-leaf stage, visual evaluation after 13 to 15 d
How it was run: as §2

rice (Oryza sativa) = assay: Test B flooded paddy test, rice; settings: Flood, 250 g ai/ha, applied to paddy water, 2-leaf stage, visual evaluation after 13 to 15 d
How it was run: as §2

[14] = test system: ryegrass, Italian (Lolium multiflorum); assay: Test A preemergence, Italian ryegrass; settings: 0 to 100 scale; for Ryegrass, Italian plant response rating: 0 is no effect, 100 is complete control
How it was run: as §1

[15] = test system: blackgrass (Alopecurus myosuroides); assay: Test A postemergence, blackgrass; settings: 0 to 100 scale
How it was run: as §1

[16] = test system: foxtail, giant (Setaria faberii); assay: Test A postemergence, giant foxtail; settings: 0 to 100 scale
How it was run: as §1

[17] = test system: pigweed (Amaranthus retroflexus); assay: Test A preemergence, pigweed; settings: 0 to 100 scale; for Pigweed plant response rating: 0 is no effect, 100 is complete control
How it was run: as §1

[18] = test system: barnyardgrass (Echinochloa crus-galli); assay: Test A preemergence, barnyardgrass; settings: 0 to 100 scale; for Barnyardgrass plant response rating: 0 is no effect, 100 is complete control
How it was run: as §1

[19] = 125 g ai/ha, 0 no effect, 100 complete control
[20] = 500 g ai/ha, 0 is no effect, 100 is complete control

C[C@@H](Nc1ncc(C(F)(F)F)c(N)n1)c1cc2cc(C(F)(F)F)ccc2o1 [Compound 7] was tested. Which “Plant response rating, Kochia” value (kochia (Kochia scoparia) [1]; 125 g ai/ha) did it give?
Its value is 0.

And the “Plant response rating, Kochia” value (kochia (Kochia scoparia) [1]; 500 g ai/ha)?
The value was 0.

What about the “Plant response rating, Barnyardgrass” value ([2]; 125 g ai/ha) of the same molecule?
The value was 0.

What about the “Plant response rating, Barnyardgrass” value ([2]; 500 g ai/ha) of the same molecule?
The value was 0.

What about the “Plant response rating, Foxtail, Giant” value ([3]; 125 g ai/ha) of the same molecule?
Its value is 0.

What about the “Plant response rating, Foxtail, Giant” value ([3]; 500 g ai/ha) of the same molecule?
The value was 0.

What about the “Plant response rating, Ragweed” value ([4]; 125 g ai/ha) of the same molecule?
Its value is 0.

And the “Plant response rating, Ragweed” value ([4]; 500 g ai/ha)?
The value was 0.

What about the “Plant response rating, Barnyardgrass (0 to 100 scale, 0 is no effect, 100 is complete control)” value [5] of the same molecule?
Its value is 0.

And the “Plant response rating, Kochia” value (kochia (Kochia scoparia) [6]; 125 g ai/ha)?
Its value is 0.

And the “Plant response rating, Kochia” value (kochia (Kochia scoparia) [6]; 500 g ai/ha)?
Its value is 0.

And the “Plant response rating, Wheat” value ([7]; 125 g ai/ha)?
Its value is 0.

And the “Plant response rating, Wheat” value ([7]; 500 g ai/ha)?
Its value is 0.

What about the “Plant response rating, Ryegrass, Italian” value ([8]; 125 g ai/ha) of the same molecule?
Its value is 0.

What about the “Plant response rating, Ryegrass, Italian” value ([8]; 500 g ai/ha) of the same molecule?
Its value is 0.

And the “Plant response rating, Galium” value ([9]; 125 g ai/ha)?
Its value is 0.

What about the “Plant response rating, Galium” value ([9]; 500 g ai/ha) of the same molecule?
Its value is 20.

And the “Plant response rating, Corn” value (corn (Zea mays); 125 g ai/ha)?
Its value is 0.

What about the “Plant response rating, Corn” value (corn (Zea mays); 500 g ai/ha) of the same molecule?
The value was 0.

What about the “Plant response rating, Ragweed” value ([10]; 125 g ai/ha) of the same molecule?
Its value is 0.

What about the “Plant response rating, Ragweed” value ([10]; 500 g ai/ha) of the same molecule?
Its value is 0.

And the “Plant response rating, Ducksalad (0 to 100 scale, 0 is no effect, 100 is complete control)” value [11]?
The value was 0.

What about the “Plant response rating, Pigweed” value ([12]; 125 g ai/ha) of the same molecule?
Its value is 30.

And the “Plant response rating, Pigweed” value ([12]; 500 g ai/ha)?
Its value is 90.

And the “Plant response rating, Sedge, Umbrella (0 to 100 scale, 0 is no effect, 100 is complete control)” value [13]?
Its value is 0.

What about the “Plant response rating, Rice (0 to 100 scale, 0 is no effect, 100 is complete control)” value (rice (Oryza sativa)) of the same molecule?
The value was 0.

What about the “Plant response rating, Ryegrass, Italian” value ([14]; 125 g ai/ha) of the same molecule?
Its value is 0.

And the “Plant response rating, Ryegrass, Italian” value ([14]; 500 g ai/ha)?
The value was 0.

And the “Plant response rating, Blackgrass” value ([15]; 125 g ai/ha)?
The value was 0.

What about the “Plant response rating, Blackgrass” value ([15]; 500 g ai/ha) of the same molecule?
Its value is 0.

And the “Plant response rating, Foxtail, Giant” value ([16]; 125 g ai/ha)?
The value was 0.

What about the “Plant response rating, Foxtail, Giant” value ([16]; 500 g ai/ha) of the same molecule?
The value was 0.

What about the “Plant response rating, Pigweed” value ([17]; 125 g ai/ha) of the same molecule?
Its value is 0.

And the “Plant response rating, Pigweed” value ([17]; 500 g ai/ha)?
The value was 30.

What about the “Plant response rating, Barnyardgrass” value ([18]; 125 g ai/ha) of the same molecule?
Its value is 0.

And the “Plant response rating, Barnyardgrass” value ([18]; 500 g ai/ha)?
Its value is 0.

With CC[C@H](Nc1ncc(C(F)(F)F)c(N)n1)c1cc2ccc(F)cc2s1 [Compound 49] as the molecule, how does the “Kochia plant response rating” value (kochia (Kochia scoparia) [1]; 125 g ai/ha) read?
The value was 0.

What about the “Kochia plant response rating” value (kochia (Kochia scoparia) [1]; 500 g ai/ha) of the same molecule?
The value was 0.

And the “Plant response rating, Barnyardgrass” value [2, 19]?
Its value is 0.

And the “Barnyardgrass plant response rating” value [2, 20]?
Its value is 0.

And the “Foxtail, Giant plant response rating” value ([3]; 125 g ai/ha)?
Its value is 0.

What about the “Foxtail, Giant plant response rating” value ([3]; 500 g ai/ha) of the same molecule?
Its value is 0.

And the “Ragweed plant response rating” value ([4]; 125 g ai/ha)?
Its value is 0.

What about the “Ragweed plant response rating” value ([4]; 500 g ai/ha) of the same molecule?
Its value is 0.

And the “Plant response rating, Barnyardgrass (0 to 100 scale, 0 is no effect, 100 is complete control)” value [5]?
Its value is 0.

What about the “Plant response rating, Kochia” value (kochia (Kochia scoparia) [6]; [19]) of the same molecule?
The value was 0.

What about the “Kochia plant response rating” value (kochia (Kochia scoparia) [6]; [20]) of the same molecule?
Its value is 0.

And the “Plant response rating, Wheat” value [7, 19]?
The value was 0.

What about the “Wheat plant response rating” value [7, 20] of the same molecule?
The value was 0.

What about the “Plant response rating, Ryegrass, Italian” value [8, 19] of the same molecule?
The value was 0.

And the “Ryegrass, Italian plant response rating” value [8, 20]?
Its value is 0.

What about the “Plant response rating, Galium” value [9, 19] of the same molecule?
Its value is 0.

And the “Galium plant response rating” value [9, 20]?
The value was 0.

And the “Plant response rating, Corn” value (corn (Zea mays); [19])?
Its value is 0.

What about the “Corn plant response rating” value (corn (Zea mays); [20]) of the same molecule?
The value was 0.

What about the “Plant response rating, Ragweed” value [10, 19] of the same molecule?
Its value is 0.

And the “Ragweed plant response rating” value [10, 20]?
Its value is 0.

And the “Plant response rating, Ducksalad (0 to 100 scale, 0 is no effect, 100 is complete control)” value [11]?
Its value is 0.

What about the “Plant response rating, Pigweed” value [12, 19] of the same molecule?
The value was 0.

And the “Pigweed plant response rating” value [12, 20]?
The value was 50.

What about the “Plant response rating, Sedge, Umbrella (0 to 100 scale, 0 is no effect, 100 is complete control)” value [13] of the same molecule?
Its value is 0.

And the “Plant response rating, Rice (0 to 100 scale, 0 is no effect, 100 is complete control)” value (rice (Oryza sativa))?
The value was 0.

And the “Ryegrass, Italian plant response rating” value ([14]; 125 g ai/ha)?
The value was 0.

And the “Ryegrass, Italian plant response rating” value ([14]; 500 g ai/ha)?
Its value is 0.

What about the “Plant response rating, Blackgrass” value [15, 19] of the same molecule?
The value was 0.

What about the “Blackgrass plant response rating” value [15, 20] of the same molecule?
The value was 0.

And the “Plant response rating, Foxtail, Giant” value [16, 19]?
The value was 0.

And the “Foxtail, Giant plant response rating” value [16, 20]?
Its value is 10.

What about the “Pigweed plant response rating” value ([17]; 125 g ai/ha) of the same molecule?
Its value is 0.

And the “Pigweed plant response rating” value ([17]; 500 g ai/ha)?
The value was 0.

And the “Barnyardgrass plant response rating” value ([18]; 125 g ai/ha)?
The value was 0.

What about the “Barnyardgrass plant response rating” value ([18]; 500 g ai/ha) of the same molecule?
Its value is 0.
